Experimental data reported in ChEMBL document CHEMBL2007661, “Compounds: GSK PKIS; Assays: UNC Frye lab” (2012).
Several values for one entry are separate records, joined by “and”; a condition that tells them apart may be missing. Equal values may be shown once.

Tests used:
[1] = biological target: T1, Inhibitor of nuclear factor kappa-B kinase subunit epsilon (Homo sapiens) (UniProt Q14164); settings: at 1 µM
T1 sequence (whole entry): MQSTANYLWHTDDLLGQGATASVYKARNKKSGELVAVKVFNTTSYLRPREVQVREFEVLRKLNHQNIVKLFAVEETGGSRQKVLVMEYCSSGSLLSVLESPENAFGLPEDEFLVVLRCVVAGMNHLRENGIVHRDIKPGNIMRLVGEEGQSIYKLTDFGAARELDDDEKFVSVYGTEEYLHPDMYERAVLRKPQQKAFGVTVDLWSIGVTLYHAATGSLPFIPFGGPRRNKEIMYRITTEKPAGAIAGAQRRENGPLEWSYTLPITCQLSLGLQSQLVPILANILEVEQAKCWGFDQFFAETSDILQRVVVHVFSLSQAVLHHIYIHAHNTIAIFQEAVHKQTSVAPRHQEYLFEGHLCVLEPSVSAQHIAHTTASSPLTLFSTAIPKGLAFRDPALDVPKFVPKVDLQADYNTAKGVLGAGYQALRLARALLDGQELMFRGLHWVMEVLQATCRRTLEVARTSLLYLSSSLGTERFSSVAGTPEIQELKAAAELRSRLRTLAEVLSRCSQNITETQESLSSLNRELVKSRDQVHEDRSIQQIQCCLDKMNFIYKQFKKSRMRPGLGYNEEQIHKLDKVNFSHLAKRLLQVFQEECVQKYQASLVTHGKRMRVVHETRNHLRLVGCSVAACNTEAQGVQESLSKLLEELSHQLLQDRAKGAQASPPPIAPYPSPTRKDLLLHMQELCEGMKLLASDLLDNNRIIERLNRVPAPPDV

[2] = biological target: T2, Tyrosine-protein kinase Mer (Homo sapiens) (UniProt Q12866); settings: at 10 µM
T2 sequence (whole entry): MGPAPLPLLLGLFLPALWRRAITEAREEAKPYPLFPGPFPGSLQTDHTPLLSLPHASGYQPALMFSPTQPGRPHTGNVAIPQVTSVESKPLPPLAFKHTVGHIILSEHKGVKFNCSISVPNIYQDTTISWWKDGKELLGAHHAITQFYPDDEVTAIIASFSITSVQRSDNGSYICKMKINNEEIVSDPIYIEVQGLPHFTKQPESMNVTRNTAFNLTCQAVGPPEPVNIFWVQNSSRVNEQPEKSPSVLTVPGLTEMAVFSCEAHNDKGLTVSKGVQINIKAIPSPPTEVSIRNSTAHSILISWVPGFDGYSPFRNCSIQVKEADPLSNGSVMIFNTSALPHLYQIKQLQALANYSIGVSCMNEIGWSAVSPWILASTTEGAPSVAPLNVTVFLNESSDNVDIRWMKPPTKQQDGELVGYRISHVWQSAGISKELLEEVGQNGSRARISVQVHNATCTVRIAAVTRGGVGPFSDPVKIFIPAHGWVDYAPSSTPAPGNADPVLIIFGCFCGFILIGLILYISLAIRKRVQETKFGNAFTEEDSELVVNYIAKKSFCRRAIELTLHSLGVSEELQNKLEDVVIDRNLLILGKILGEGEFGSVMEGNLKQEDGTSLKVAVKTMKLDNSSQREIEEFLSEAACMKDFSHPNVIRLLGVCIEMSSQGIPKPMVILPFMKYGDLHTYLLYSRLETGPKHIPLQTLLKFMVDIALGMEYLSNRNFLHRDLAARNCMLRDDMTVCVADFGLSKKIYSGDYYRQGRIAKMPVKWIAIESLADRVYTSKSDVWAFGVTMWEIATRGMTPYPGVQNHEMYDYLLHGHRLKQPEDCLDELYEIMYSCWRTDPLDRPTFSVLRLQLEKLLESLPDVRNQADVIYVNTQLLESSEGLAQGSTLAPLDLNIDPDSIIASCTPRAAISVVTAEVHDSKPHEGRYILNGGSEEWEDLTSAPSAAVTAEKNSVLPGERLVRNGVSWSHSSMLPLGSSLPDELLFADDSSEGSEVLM

Structure (SMILES) | inhibition [1] | inhibition [2]
CN(C)CCOc1ccc(-c2nc(-c3ccncc3)c(-c3ccc4c(c3)CC/C4=N\O)[nH]2)cc1 | -1% and 0% | 3%
CCn1c(-c2nonc2N)nc2cncc(C(=O)NCCNC)c21 | 13% and 14% | 81%
CCNC(=O)O[C@H]1CN[C@H](C#Cc2cc3ncnc(Nc4ccc(OCc5cccc(F)c5)c(Cl)c4)c3s2)C1 | 1% and 3% | 2%
Fc1ccc(-c2cc(-c3c[nH]nc3-c3ccccn3)ccn2)cc1 | -1% | -3%
COc1cc(N2CCN(C(C)C)CC2)ccc1Nc1nc(Nc2cccc(F)c2C(=O)O)c2cc[nH]c2n1 | -1% and 0% | -2%
Cc1ccc(C(=O)NC2CC2)cc1-c1ccc2[nH]ncc2c1 | 1% and -2% | 6%
CCn1c(-c2nonc2N)nc2c(C#CC(C)(C)O)nc(O[C@@H](CN)c3ccccc3)cc21 | 99% and 98% | -9%
N#Cc1ccc(Oc2nccc(-c3c(-c4ccc(F)cc4)ncn3C3CCNCC3)n2)cc1 | 2% and 4% | -1%
COc1ccc(-c2nn3ncccc3c2-c2ccnc(Nc3ccc(Cl)c(C(F)(F)F)c3)n2)cc1 | -1% and -2% | 13%
Cc1ccc(NC(=O)c2ccoc2)cc1-c1ccc(C(=O)NCC2CC2)cc1 | 1% | -4%
C[C@@H](Oc1cc(-n2cnc3ccc(OC[C@@H](O)CO)cc32)sc1C(N)=O)c1ccccc1Cl | 1% and 3% | -1%
CNC(=O)Oc1cc(C)c(/C=C/c2cncc(C(=O)NC)c2)c(C)c1 | -1% | 48%
COc1ccc(CNC(=O)c2ccc(-c3cc(-c4nnc(C)o4)ccc3C)cc2)cc1 | -3% | 3%
COc1cc2ncn(-c3cc(O[C@H](C)c4ccccc4Cl)c(C(N)=O)s3)c2cc1OC | 3% and 2% | -8%
N#Cc1c(NC(=O)c2ccccc2F)sc2c1CCCC2 | 1% and 4% | -6%
COc1ccccc1Nc1ncc(-c2ccccc2)o1 | 5% | 3%
Cc1nnc(-c2ccc(C)c(-c3ccc(C(=O)NCc4ccc(Cl)cc4)cc3)c2)o1 | 2% | 92%
Cc1ccc(NC(=O)c2ccnc(N3CCCC3)c2)cc1-c1ccc(C(=O)NCC2CC2)cc1 | 5% and 6% | -1%
CC(=O)Nc1cccc(C#Cc2cncnc2Nc2ccc(OCc3cccc(F)c3)c(Cl)c2)c1 | -7% and -6% | -1%
Fc1ccc(-c2c(-c3ccncc3)nc3n2CCS3)cc1 | -1% and 0% | 10%
O=C1Nc2ccccc2/C1=C/Nc1ccc(-n2cncn2)cc1 | 18% | 10%
CCS(=O)(=O)c1ccc(OC)c(Nc2ncc(-c3cccc(OC)c3)o2)c1 | 3% | -1%
CC1=C(C(=O)Nc2ccc3[nH]ncc3c2)C(c2ccc(F)cc2)NC(=O)N1 (stereo not drawn) | 2% | -2%
Cc1ccc(Nc2ccnc(Nc3cccc(C(N)=O)c3)n2)cc1O | 26% and 27% | 93%

Now from value to compound:

inhibition [1] | inhibition [2] | Structure (SMILES)
1% and 3% | 18% | O=C1NC(=O)C(c2ccccc2Cl)=C1Nc1cccc(O)c1
1% and 0% | 18% | CC1=C(C(=O)Nc2cc(Cl)c3[nH]ncc3c2)C(c2ccc(C(F)(F)F)cc2)CC(=O)N1 (stereo not drawn)
45% | -2% | CCOc1ccc2c(-c3ccnc(Nc4cccc(C(F)(F)F)c4)n3)cnn2n1
-2% | -6% | Cc1cc(O)cc(C)c1/C=C/c1cncc(C(N)=O)c1
44% and 43% | 2% | COc1ccc2c(-c3ccnc(Nc4cccc(OC(F)(F)F)c4)n3)cnn2n1
1% | 24% | N#Cc1ccc2c(-c3ccnc(NC4CC4)n3)c(-c3ccc(F)cc3)nn2c1
1% and 2% | 0% | COc1ccc2cc(-c3c(-c4ccncc4)nc(-c4ccc(S(C)(=O)=O)cc4C)n3C)ccc2c1
0% and -3% | -5% | Cc1ccc2c(-c3ccnc(Nc4ccc5c(c4)OCCO5)n3)c(-c3ccc(C(F)(F)F)cc3)nn2n1
36% and 35% | -2% | CCn1c(-c2nonc2N)nc2c(C#CC(C)(C)O)nc(OC[C@H](N)c3ccccc3)cc21
2% and -2% | 5% | COc1ccc(-c2cc3c(N)ncnc3o2)cc1
-4% | -7% | CC(=O)NCc1cccc(C#Cc2cncnc2Nc2ccc(OCc3cccc(F)c3)c(Cl)c2)c1
5% and 6% | -2% | C/C(Nc1ccc(S(N)(=O)=O)cc1)=C1/C(=O)Nc2ccccc21
3% and 4% | 1% | CN(C)CCOc1ccc(-c2cc(-c3ccc4c(c3)CCC4=NO)c(-c3ccncc3)o2)cc1
9% and 10% | 1% | CCCNc1cccc(-n2ncc3c(N/N=C/c4ccncc4)ncnc32)c1
10% and 11% | 51% | COc1cc2ncn(-c3cc(OCCc4ccccc4)c(C(N)=O)s3)c2cc1OC
37% and 36% | 2% | CN(C)c1ccc2c(c1)/C(=C/Nc1ccc(S(N)(=O)=O)cc1)C(=O)N2
2% and 3% | 13% | CCN(CC)S(=O)(=O)c1ccc(OC)c(Nc2ncc(-c3ccccc3)o2)c1
-3% and -1% | 67% | Fc1ccc(-c2ncn(C3CCNCC3)c2-c2ccnc(Oc3ccc(F)c(F)c3)n2)cc1

inhibition [1] | inhibition [2] | Structure (SMILES)
-2% and -1% | -4% | CCc1nn2ncccc2c1-c1ccnc(NC2CC2)n1
29% and 27% | 49% | COc1cccc(-n2ncc3c(N/N=C/c4ccc(C(=O)NCCN(C)C)cc4)ncnc32)c1
16% and 15% | 99% | O=C1NC(=O)C(c2cccc(Cl)c2)=C1Nc1ccc(O)c(Cl)c1
-1% and 0% | -1% | c1ccc(-c2n[nH]cc2-c2ccnc(-c3ccc(OCCN4CCOCC4)cc3)c2)nc1
6% and 4% | 84% | COc1cccc(-n2ncc3c(N/N=C/c4ccncc4)ncnc32)c1
-1% and -2% | -7% | Cc1cc(-c2ccccn2)cc(C)c1/C=C/c1cncc(-c2nn[nH]n2)c1
4% and 6% | 39% | O=C(Nc1n[nH]c2nc(-c3ccc(O)cc3)c(Br)cc12)C1CC1
-1% and 0% | 84% | CS(=O)(=O)CCNCc1coc(-c2ccc3ncnc(Nc4ccc(OCc5ccccc5)cc4)c3c2)c1
92% and 91% | -1% | O=C1Nc2ccc(C(=O)c3ccco3)cc2C1=Cc1cc(Cl)c(O)c(Cl)c1
1% and 4% | 38% | ON=C1CCc2cc(-c3nc(C4CCNCC4)[nH]c3-c3ccncc3)ccc21
-2% | -1% | N#Cc1c(NC(=O)CN2CCOCC2)sc2c1CCCC2
3% and 2% | 1% | CS(=O)(=O)Nc1ccc(-c2ccc3c(NC(=O)C4CC4)n[nH]c3c2)cc1
-1% | 1% | COc1cccc(COc2cc(-n3cnc4ccccc43)sc2C(N)=O)c1
2% and 1% | 6% | CCS(=O)(=O)c1ccc(OC)c(Nc2ncc(-c3ccccc3Cl)o2)c1
39% and 41% | 16% | NS(=O)(=O)c1ccc(N/N=C2\C(=O)Nc3ccc(-c4cnco4)cc32)cc1
85% | -5% | NS(=O)(=O)c1ccc(NC=C2C(=O)Nc3ccc4ncsc4c32)cc1
2% | -2% | Cc1cc(O)cc(C)c1/C=C/c1cncc(-c2nn[nH]n2)c1
